The supplement of paper PMC4862054

Columns and labels:
Conditions in all cases: incubation time: 72 h
[1] = test system: MDA-MB-436; test: normalised response (% of control), CellTox Green; higher = less cell death (100 = DMSO, 0 = benzethonium chloride kill control)
Procedure, shortened: (§1)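 Each entry is the normalised signal at a single concentration within a series. The series comprised 5 concentrations in 10-fold steps over a compound-specific 10,000-fold range, placed in 384-well plates into which breast cancer cell lines were seeded as 20 µl suspension and incubated 72 h. CellTox Green (485/520 nm) fluorescence and then CellTiter-Glo luminescence were read, with signals normalised per plate to 0.1 % DMSO (100) and a positive kill control (0).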

[2] = test system: MDA-MB-453; test: as above
Procedure, shortened: as §1

[3] = test system: HCC1937; test: as above
Procedure, shortened: as §1

[4] = test system: CAL-51; test: as above
Procedure, shortened: as §1

[5] = test system: DU-4475; test: as above
Procedure, shortened: as §1

[6] = test system: MDA-MB-231; test: as above
Procedure, shortened: as §1

[7] = test system: MCF-10A; test: as above
Procedure, shortened: as §1

[8] = test system: CAL-148; test: as above
Procedure, shortened: as §1

[9] = test system: Hs578T; test: as above
Procedure, shortened: as §1

[10] = test system: CAL-85-1; test: as above
Procedure, shortened: as §1

[11] = test system: CAL-120; test: as above
Procedure, shortened: as §1

[12] = test system: BT-474; test: as above
Procedure, shortened: as §1

[13] = test system: HCC1599; test: as above
Procedure, shortened: as §1

[14] = test system: BT-549; test: as above
Procedure, shortened: as §1

[15] = test system: MFM-223; test: as above
Procedure, shortened: as §1

[16] = test system: MDA-MB-468; test: as above
Procedure, shortened: as §1

[17] = test system: HCC1143; test: as above
Procedure, shortened: as §1

[18] = test system: MDA-MB-436; test: normalised response (% of control), CellTiter-Glo; higher = more viable cells (100 = DMSO, 0 = benzethonium chloride kill control)
Experimental: (§2)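 DSRT, 72 h incubation, CellTox Green / CellTiter-Glo readout. Signal is normalised to DMSO and benzethonium chloride controls. Value is the normalised response at dose 3.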

[19] = test system: MDA-MB-453; test: as above
Experimental: as §2

[20] = test system: HDQ-P1; test: as above
Experimental: as §2

[21] = test system: HCC1937; test: as above
Experimental: as §2

[22] = test system: CAL-51; test: as above
Experimental: as §2

[23] = test system: DU-4475; test: as above
Experimental: as §2

[24] = test system: MDA-MB-231; test: as above
Experimental: as §2

[25] = test system: MCF-10A; test: as above
Experimental: as §2

[26] = test system: CAL-148; test: as above
Experimental: as §2

[27] = test system: Hs578T; test: as above
Experimental: as §2

[28] = test system: SK-BR-3; test: as above
Experimental: as §2

[29] = test system: CAL-85-1; test: as above
Experimental: as §2

[30] = test system: CAL-120; test: as above
Experimental: as §2

[31] = test system: BT-474; test: as above
Experimental: as §2

[32] = test system: HCC1599; test: as above
Experimental: as §2

[33] = test system: BT-549; test: as above
Experimental: as §2

[34] = test system: MFM-223; test: as above
Experimental: as §2

[35] = test system: MDA-MB-468; test: as above
Experimental: as §2

[36] = test system: HCC1143; test: as above
Experimental: as §2

[37] = test system: HDQ-P1; test: normalised response (% of control), CellTox Green; higher = less cell death (100 = DMSO, 0 = benzethonium chloride kill control)
Procedure, shortened: as §1

SMILES	normalised response [1]	normalised response [2]	normalised response [3]	normalised response [4]	normalised response [5]	normalised response [6]	normalised response [7]	normalised response [8]	normalised response [9]	normalised response [10]	normalised response [11]	normalised response [12]	normalised response [13]	normalised response [14]	normalised response [15]	normalised response [16]	normalised response [17]	normalised response [18]	normalised response [19]	normalised response [20]	normalised response [21]	normalised response [22]	normalised response [23]	normalised response [24]	normalised response [25]	normalised response [26]	normalised response [27]	normalised response [28]	normalised response [29]	normalised response [30]	normalised response [31]	normalised response [32]	normalised response [33]	normalised response [34]	normalised response [35]	normalised response [36]	normalised response [37]
Oc1ncc(N(CCCl)CCCl)c(O)n1 [Uracil mustard] (100 nM)	109%	110%	88%	109%	108%	118%	114%	103%	111%	114%	106%	104%	102%	111%	102%	154%	113%	98.9%	95.5%	104%	98%	110%	99.1%	100%	101%	100%	102%	101%	96.7%	103%	106%	95.5%	105%	104%	94.6%	100%	–
O=C(O)C(=O)O.[NH-][C@@H]1CCCC[C@H]1[NH-].[Pt+2] [Oxaliplatin] (100 nM)	–	97.2%	79.4%	84.7%	96.8%	89.6%	70%	61.1%	–	93.8%	100%	93%	94.2%	110%	76.6%	110%	89.3%	103%	87.5%	104%	93.1%	77%	92.5%	97.2%	97.5%	85.6%	97.9%	84.8%	96.9%	103%	99%	93%	108%	94.3%	89.3%	99%	110%
COc1cc([C@@H]2c3cc4c(cc3[C@@H](O[C@@H]3O[C@@H]5CO[C@@H](c6cccs6)O[C@H]5[C@H](O)[C@H]3O)[C@H]3COC(=O)[C@H]23)OCO4)cc(OC)c1O [Teniposide] (100 nM)	95.1%	107%	–	74.2%	93.6%	103%	83.6%	36.3%	–	89.4%	96%	99.7%	91.3%	90.5%	99.3%	54.9%	111%	62.6%	118%	96.4%	91.9%	78.5%	69.2%	94.3%	88.2%	74.5%	90%	58.5%	91.6%	94.7%	87.8%	66.7%	68%	108%	79.3%	83.2%	102%
C[C@H]1C[C@@H]2[C@H]([C@@H](O)C[C@@]3(C)[C@H]2CC[C@]3(O)C(=O)CO)[C@@]2(C)C=CC(=O)C=C12 [Methylprednisolone] (100 nM)	89.9%	76.2%	115%	111%	102%	140%	101%	107%	89%	102%	103%	98.9%	110%	103%	78.2%	169%	90.4%	104%	99.9%	90.5%	98.3%	86.4%	108%	156%	106%	109%	107%	104%	115%	76.9%	152%	97.9%	101%	109%	111%	108%	–
CC1=C(/C=C/C(C)=C/C=C/C(C)=C/C(=O)O)C(C)(C)CCC1 [Tretinoin] (100 nM)	106%	109%	92.8%	102%	108%	117%	105%	95.3%	–	102%	101%	103%	99.1%	115%	103%	159%	96.3%	100%	108%	100%	95.8%	87.7%	98.3%	102%	88.7%	91.9%	98.5%	79.8%	97.5%	105%	92.7%	103%	102%	93.7%	92%	97.4%	108%
COc1cc2c(NC3CCN(C(C)C)CC3)nc(C3CCCCC3)nc2cc1OCCCN1CCCC1 [UNC0638] (100 nM)	94.6%	99.2%	–	99.5%	97.4%	102%	98.3%	96.8%	–	111%	100%	101%	101%	63.7%	102%	119%	107%	102%	92.7%	97%	92.2%	97.3%	86.5%	92.2%	88%	88%	97.4%	80.1%	98.8%	101%	94.1%	80.8%	101%	88.6%	83.8%	100%	102%
COc1cc2nccc(Oc3ccc(NC(=O)Nc4cc(C)on4)c(Cl)c3)c2cc1OC [Tivozanib] (100 nM)	–	97.2%	117%	108%	96.9%	94.9%	96.3%	102%	–	98.6%	96.9%	96%	104%	109%	103%	110%	89%	91.2%	87.7%	104%	95.1%	99.6%	98.1%	96.2%	94.5%	88.5%	93.7%	83.3%	99.5%	94.2%	93%	102%	106%	86.1%	93.6%	102%	94.8%
CCc1cncnc1N1CCN(Cc2nc3ccc(C(F)(F)F)cc3[nH]2)CC1 (100 nM)	99.8%	87.5%	–	86.3%	101%	105%	86.4%	108%	–	99.3%	96%	97.9%	99.1%	83.3%	106%	108%	118%	108%	106%	97.7%	98.6%	88.2%	106%	110%	108%	116%	109%	107%	95.8%	109%	105%	99.9%	92.9%	110%	106%	107%	96%
CC[C@H](C)C(=O)O[C@H]1C[C@H](O)C=C2C=C[C@H](C)[C@H](CC[C@@H](O)C[C@@H](O)CC(=O)O)[C@H]21 [Pravastatin] (100 nM)	-74.8%	98.4%	95.9%	73.3%	101%	102%	99%	88.8%	–	97.9%	97.2%	99.2%	96.2%	103%	98.2%	107%	79.9%	13.5%	85.9%	98%	93.7%	63.4%	95.7%	97.8%	97.4%	86.3%	93.2%	93.6%	99%	101%	99.2%	88.7%	101%	88.8%	97.7%	101%	100%
